Data on one molecule can be found in patent US9345677B2, “Compositions, methods and kits relating to HER-2 cleavage” (Incyte Corporation, priority 2003, dated 2016).

One experiment deals with T1, ADAM10 (Homo sapiens, UniProt O14672).
T1 construct: purchased R&D Systems 936-AD
T1 sequence (O14672 214-748): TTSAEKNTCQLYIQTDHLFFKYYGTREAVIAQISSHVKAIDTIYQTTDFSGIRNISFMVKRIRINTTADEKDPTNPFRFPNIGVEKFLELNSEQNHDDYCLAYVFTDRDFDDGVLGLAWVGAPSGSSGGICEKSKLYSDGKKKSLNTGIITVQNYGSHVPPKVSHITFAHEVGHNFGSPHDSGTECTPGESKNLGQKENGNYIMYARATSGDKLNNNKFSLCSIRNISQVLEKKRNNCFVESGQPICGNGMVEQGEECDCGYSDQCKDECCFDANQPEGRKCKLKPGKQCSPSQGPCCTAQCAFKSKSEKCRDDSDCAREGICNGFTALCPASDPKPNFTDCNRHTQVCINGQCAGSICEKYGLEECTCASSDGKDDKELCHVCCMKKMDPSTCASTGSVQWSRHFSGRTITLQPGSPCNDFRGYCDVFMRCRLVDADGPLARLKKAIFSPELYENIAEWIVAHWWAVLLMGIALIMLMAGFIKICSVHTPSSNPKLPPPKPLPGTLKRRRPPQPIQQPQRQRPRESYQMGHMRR
Description: ADAM10 fluorogenic peptide biochemical assay. As to the method:
5 mM Compound stock was prepared in DMSO. Compound plate was prepared by 2-fold dilution for 11-point curve, with highest concentration of 500 μM. 1 μL of compound in DMSO was transferred from compound plate to the assay plate. Enzyme solution was prepared in assay buffer with a concentration of 100 ng/50 μL. Substrate ((7-methoxycoumarin-4-yl)-acetyl-Pro-Leu-Ala-Gln-Ala-Val-(3-[2,4-dinitrophenyl]-L-2,3-diaminopropionyl)-Arg-Ser-Ser-Ser-Arg-NH2 (SEQ ID NO:48)) solution was prepared in assay buffer with a concentration of 20 μM. 50 μL of enzyme solution was added to the assay plate. The assay plate was incubated for 5 minutes. 50 μL of substrate solution was then added to the assay plate. The plate was protected from light and incubated at 37° C. for 4 hours. The reaction was stopped by adding 10 μL of 500 mM EDTA solution. The plate was read on a plate reader with excitation of 320 nm and emission of 405 nm.
Source of enzymes for biochemical assays: Except for ADAM17 and MT1-MMP, all recombinant human MMPs and ADAMs were obtained from R&D Systems (Minneapolis, Minn.). […]
In general, 5 mM compound stock was prepared in DMSO. […] The plate was read on a plate reader with excitation of 320 nm and emission of 405 nm. Percentage of inhibition was calculated for each concentration and IC50 value was generated from curve fitting. […]

Another experiment deals with BT474 cells. Description: Cell proliferation assay (cell counting, BrdU incorporation). It counts as cell-based, human. Particulars: Her-2 overexpressing BT474 cells.

Description for BT474 cells: Proliferation assays were routinely performed with two protocols: cell counting and BrdU incorporation assay. For cell counting, cells (1×10^5) were seeded in each well of 12 well plates and cultured overnight. Then, cells were treated for 6 days with drugs and compounds as indicated in individual experiments. Culture media were replaced with fresh media containing the same concentrations of drugs and compounds after the first 3 days of treatment. Viable cells were counted with hemacytometers immediately after trypan blue staining.
The BrdU incorporation assay was performed using a colorimetric Cell Proliferation ELISA kit per manufacturer's instruction (#1647229, Roche Molecular Biochemicals), measuring DNA synthesis in proliferating cells. Briefly, cells (5−10×10^3) were seeded in each well of 96 well plates and cultured overnight. […] Finally, 100 μl/well of substrate solution was added and the results were obtained using a microplate reader (Spectra Max PLUS, Molecular Devices) during color development. Multiple readings at various time points were obtained and results in the linear range of the assay were obtained. […]
After varying periods of cell culture (2-6 days), the cell cultures were harvested and cell growth was assessed by cell count and BRdU incorporation using standard protocols.

The molecule `Cc1cc([N+](=O)[O-])ccc1N1CCN(C(=O)[C@@H]2[C@@H](C(=O)NO)CC3(CC3)CN2C)CC1` [Compound 5, (6S,7S)-N-hydroxy-5-methyl-6-{[4-(2-methyl-4-nitrophenyl)piperazin-1-yl]-carbonyl}-5-azaspiro[2.5]octane-7-carboxamide] returned an IC50 against ADAM10 of 98 nM. The “effect on antiproliferative activity of a suboptimal dose of Herceptin” value in the experiment on BT474 cells is listed as “synergistically enhances”.
